# Results from patent US8173668B1 (Alcon Research, Ltd., priority 2007, dated 2012).
# Legend:
# [1] = tested on: h-NPE cells; experiment: Prostaglandin production in h-NPE cells; assay type: cell-based, human; details: 1-10 μM
# Procedure: A functional assay to discover BK agonists may involve the measurement of prostaglandin E2 (PGE2) production (Wiernas et al. Brit. J. Pharmacol. 123: 1127-1137, 1998), for instance, in cells isolated from human or animal ocular or non-ocular tissues, or cells expressing recombinant (preferably human) BK receptors. Cells expressing BK receptors are seeded in 48-wells culture plates and allowed to reach confluence. After this time the cells are rinsed twice with 0.5 mL of phosphate buffered saline and incubated with the test agent made up in 0.5 mL Dulbeco's modified Eagle's medium (DMEM)/F-12 for 1 h at 37° C. […]
# After this incubation, all tubes are placed in an ice-bath and 1 ml cold precipitating reagent supplied in the kit is added to the tubes, the content mixed and incubated for 25 min at 4° C. […] The supernatants of all tubes are decanted as specified in the kit instructions and the RIA samples analyzed on a gamma-counter. The levels of PGE2 generated by the test agent are then quantified in comparison with the PGE2-standard curve. Dose-response data for the test agent are constructed and the potency and intrinsic activity determined as described above for other assays. […]
# [2] = tested on: h-CM cells; experiment: MMP activity in h-CM cells after 24 hour exposure; assay type: cell-based, human; details: 1 μM
# Procedure: As with FP-class prostanoids, the IOP-lowering effects of BK may involve the stimulation of production of various MMPs that in turn digest the extracellular matrix (ECM) to promote outflow and thus lower IOP (Mietz et al., Invest. Ophthalmol. Vis. Sci. 44: 5182-5188, 2003; Webb et al., J. Ocular Pharmacol. Ther. 22: 310-316, 2006). Cells isolated from human or animal ocular or non-ocular tissues, or cells expressing recombinant (preferably human) BK receptors are seeded in 48-wells culture plates and allowed to reach confluence. […] BK (100 nM) can be used a positive control compound. After this time the supernatant from each well is concentrated 20-fold (Centricon Concentrators; Millipore Corp., Bedford, Mass.). Equivalent volumes of media are then loaded onto 12% sodium dodicyl sulfate polyacrylamide gels, where the secreted proteins are separated according to their molecular weights by standard SDS-polyacrylamide gel electrophoresis protocols and transferred onto nitrocellulose paper. The level of MMP-1, MMP-2, MMP-3 and MMP-9 is then determined by immunoblot analysis with rabbit polyclonal anti-MMP antibodies. Bands are visualized by the addition of anti-rabbit horseradish peroxidase-conjugated secondary antibodies (New England Biolabs, Inc.; Beverly, Mass.) and enhanced chemiluminescent reagents (Pierce Biotechnology, Inc., Rockford, Ill.) (Mietz et al., Invest. Ophthalmol. Vis. Sci. 44: 5182-5188, 2003; Webb et al., J. Ocular Pharmacol. Ther. 22: 310-316, 2006). BK agonists should stimulate the production of some or all of MMP-1, MMP-2, MMP-3 and MMP-9. […] However, BK agonists with lower potencies than the above limits, whether partial or full agonists, can still be considered useful ocular hypotensive agents and may be useful as such.
# Enhancement of such MMP synthesis and release by h-CM in response to FR-190997 may explain the efficacious IOP-lowering observed with this BK agonist in the glaucomatous monkey eyes (see below).
# [3] = tested on: ocular hypertensive eyes of ketamine-sedated cynomolgus monkeys; experiment: Aqueous humor dynamics (fluorophotometry, tonography) in ketamine-sedated cynomolgus monkeys; assay type: in vivo; details: Treatment Day, Hypertensive Eye OS; one drop of 30 μl 0.01% the day before; mean ± SD
# Excerpt: Methods used in this Example were described by Yablonski et al. Invest Ophthalmol V is Sci 1987; 28:2076-2082; Hayashi et al. Exp Eye Res 1989; 48:621-625; Mäepea et al. Exp Eye Res 1989; 49:645-663, and as below:
# Twelve female cynomolgus monkeys between the ages of 5 and 8 years were included in the study. All had unilateral laser treatment to the trabecular meshwork of the left eye. Lasering had been done between 2 and 4 years before the study.
# Measurements were made on baseline day and after AL-42205-01 (FR-190997) treatment to both eyes. When necessary, sedation was induced by ketamine hydrochloride (HCl), 1 to 5 mg/kg, administered intramuscularly 5 minutes before a measurement to achieve pharmacological restraint. Animals were seated in specially designed chairs for all tonometry and fluorophotometry measurements. Fifteen hours prior to each study day, IOP1 was measured with a pneumatonometer (Classic 30, Xomed, Jacksonville, Fla.) after topical application of proparacaine HCl, 0.13%. Fluorescein (10%) was applied to the cornea by topical drops. Measurements commenced at 8:30-9:00 a.m. the following day with tonometry (IOP2). The fluorescence of the cornea and anterior chamber were measured in duplicate with a scanning fluorophotometer (Fluorotron, OcuMetrics, Palo Alto, Calif.). Scans were taken at 45 minute intervals for a total of 4 sets.
# After the fourth set of scans and another IOP measurement (IOP3), an intramuscular injection of acetazolamide (12-20 mg/kg) was administered to reduce IOP by reducing aqueous flow. The dose of acetazolamide for individual monkeys depended on its IOP efficacy in previous studies. Fluorophotometric scans and IOP measurements were repeated 0.75, 1.50 and 2.25 hours after acetazolamide injection. Fluorophotometric outflow facility (Cfl) was calculated as the ratio of the change in aqueous flow to the change in IOP. Uveoscleral outflow (Fus) was calculated by the equation Fus=Fa−Cfl (IOP3−Pev) where Pev is the episcleral venous pressure. A value of 15 mmHg was used. The final measurement was two-minute tonography. The tonography mode of the pneumatonometer was used. Calculations were made using PowerLab and Excel.
# Treatment measurements were collected between 6 and 21 days after baseline measurements. The day before the measurement day, conscious IOP was measured (IOP1; 9:00 AM) and one drop of 30 μl of AL-42205-01 0.01% (in matrix vehicle) was applied to both eyes. The drug was used within a week of receipt. It was stored refrigerated before use. Conscious IOP was measured again (IOP2; 5 PM) just before fluorescein was applied as before. The day of fluorophotometry, all measurements were made under sedation as on baseline day.
# Values were compared between eyes on each day and baseline values were compared with post-treatment values using Student's two-tailed paired t-test (Table 11). Values are reported as means± standard deviation (SD).
structure (smiles),measurement,setting,value
CNC(=O)c1ccc(/C=C/C(=O)NCC(=O)N(C)c2ccc(Cl)c(COc3cccc4c(OCc5ccccn5)cc(C)nc34)c2Cl)cc1 [FR-190997],production of prostaglandins,[1],1.26 fold above basal
same,MMP-1 activity,[2],59 % above basal levels
same,MMP-2 activity,[2],not MMP-2 activity
same,MMP-3 activity,[2],96 % above basal levels
same,"Cfl, fluorophotometric outflow facility",[3],0.18 ± 0.16 μl/min/mmHg
same,"Cton, tonographic outflow facility",[3],0.17 ± 0.11 μl/min/mmHg
same,"Fa, aqueous flow",[3],1.48 ± 0.53 µL/min
same,"Fufl, uveoscleral outflow calculated with Cfl",[3],1.23 ± 0.91 µL/min
same,"Futon, uveoscleral outflow calculated with Cton",[3],1.45 ± 0.45 µL/min
